Laboratory results published in US11884627B2, “Compounds and compositions for treating conditions associated with LPA receptor activity” (Lhotse Bio, Inc., priority 2022, dated 2024).
Read-outs that look alike come from different tables or passages of the source.

Molecular target: T1, human LPA1 (Homo sapiens, UniProt Q92633)
T1 construct: expressed in transfected cells; host or cells: CHO-K1
Experiment: In vitro LPA1 calcium flux antagonist assay - Bioduro protocol
Assay type: cell-based
Conditions: CHO-K1 cells overexpressing human LPA1 and G15a, LPA challenge at EC80
In short: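 CHO-K1 cells overexpressing human LPA1 and G15a, serum-starved 4 h, loaded with Fluo-8 AM plus 2.5 mM probenecid in HBSS/20 mM Hepes for 30 min at 37 °C. Compound preincubated 30 min, then LPA challenge at EC80; FLIPR calcium signal, % inhibition relative to DMSO and LPA controls.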

[1] = calcium mobilization on FLIPR Tetra, read-out: IC50
[2] = Table B3, read-out: Activity (IC50 class)

T1 sequence (Q92633 whole entry): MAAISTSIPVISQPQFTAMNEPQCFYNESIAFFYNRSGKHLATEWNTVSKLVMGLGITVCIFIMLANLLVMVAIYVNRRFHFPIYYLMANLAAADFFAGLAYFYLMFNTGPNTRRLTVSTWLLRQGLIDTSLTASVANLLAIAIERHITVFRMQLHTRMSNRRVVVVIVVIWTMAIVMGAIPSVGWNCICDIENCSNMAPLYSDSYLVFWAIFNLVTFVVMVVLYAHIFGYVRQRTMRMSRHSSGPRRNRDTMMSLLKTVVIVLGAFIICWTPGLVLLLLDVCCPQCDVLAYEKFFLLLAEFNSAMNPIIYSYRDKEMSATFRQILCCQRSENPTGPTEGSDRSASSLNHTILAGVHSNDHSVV

Row | IC50 [1] [µM] | IC50 [2] [µM] | SMILES
1 | 0.0308 | < 0.1 | COc1cc(-c2ccc(NC3(C(=O)O)CCOCC3)cc2COC2CCCC2)c(Cl)c(OC)c1C#N [Compound 262]
2 | 0.0604 | < 0.1 | COc1cc(-c2ccc(NC3(C(=O)O)CCOCC3)cc2COC2CCC2)c(F)c(OC)c1C [Compound 263]
3 | 0.00542 | < 0.1 | CCOc1cccc(-c2ccc(NC3(C(=O)O)CCOCC3)cc2COC2CCCC2)c1Cl [Compound 264]
4 | 0.012 | < 0.1 | O=C(O)C1(Nc2ccc(-c3cccc(OC4CC4)c3F)c(COC3CCCC3)c2)CCOCC1 [Compound 265, 4-((2-((cyclopentyloxy)methyl)-3′-cyclopropoxy-2′-fluoro-[1,1′-biphenyl]-4-yl)amino)tetrahydro-2H-pyran-4-carboxylic acid]
5 | 0.142 | 0.1 to 1 | CCOc1c(F)ccc(-c2ccc(NC3(C(=O)O)CCOCC3)cc2COC2CCCC2)c1F [Compound 266]
6 | 0.068 | < 0.1 | CCOc1cccc(-c2ccc(NC3(C(=O)O)CCOCC3)cc2CCC2CCOC2)c1F (stereo not drawn) [Compound 267]
7 | 0.0798 | < 0.1 | COc1c(C)c(OC)c(F)c(-c2ccc(NC3(C(=O)O)CCOCC3)cc2COC2CCCC2)c1F [Compound 270]
8 | 0.0214 | < 0.1 | COc1cc(-c2ccc(NC3(C(=O)O)CCOCC3)cc2COC2CCCC2)c(F)c(OC)c1C(C)=O [Compound 271]
9 | 0.00696 | < 0.1 | CCOc1cccc(-c2ccc(NC3(C(=O)O)CCOCC3)cc2CCC2CCCC2)c1F [Compound 272]
10 | 0.0171 | < 0.1 | COc1cc(-c2c(COC3CCCC3)cc(NC3(C(=O)O)CCOCC3)cc2C(F)F)cc(OC)c1C [Compound 273]
11 | 0.028 | < 0.1 | COc1cc(-c2ccc(NC3(C(=O)O)CCOCC3)cc2COC2CCCC2)cc(OC)c1C(F)F [Compound 274]
12 | 0.229 | 0.1 to 1 | COc1cc(-c2c(COC3CCCC3)cc(NC3(C(=O)O)CCOCC3)cc2C(F)(F)F)cc(OC)c1C [Compound 275]
13 | 0.0254 | < 0.1 | COc1cc(-c2ccc(NC3(C(=O)O)CCOCC3)cc2COC2CCCCC2)c(F)c(OC)c1C [Compound 276]
14 | 0.0727 | < 0.1 | CC(C)COc1cccc(-c2ccc(NC3(C(=O)O)CCOCC3)cc2COC2CCCC2)c1F [Compound 277]
15 | 0.0366 | < 0.1 | CCNc1cccc(-c2ccc(NC3(C(=O)O)CCOCC3)cc2COC2CCCC2)c1F [Compound 278, 4-((2-((cyclopentyloxy)methyl)-3′-(ethylamino)-2′-fluoro-[1,1′-biphenyl]-4-yl)amino)tetrahydro-2H-pyran-4-carboxylic acid]
16 | 0.00419 | < 0.1 | CCOc1cccc(-c2ccc(NC3(C(=O)O)CCOCC3)cc2COC2CC2)c1C(F)F [Compound 279, 4-((2-(cyclopropoxymethyl)-2′-(difluoromethyl)-3′-ethoxy-[1,1′-biphenyl]-4-yl)amino)tetrahydro-2H-pyran-4-carboxylic acid]
17 | 0.11 | 0.1 to 1 | COc1cc(-c2ccc(OC3(C(=O)O)CCOCC3)cc2CO[C@H]2CCOC2)c(F)c(OC)c1C [Compound 281]
18 | 0.00987 | < 0.1 | CCCc1cccc(-c2ccc(NC3(C(=O)O)CCOCC3)cc2COC2CCCC2)c1F [Compound 286]
19 | 0.00246 | < 0.1 | CCOc1cc(OC)cc(-c2ccc(NC3(C(=O)O)CCOCC3)cc2COC2CCCC2)c1F [Compound 287]
20 | 0.0119 | < 0.1 | CCOc1cc(OC)cc(-c2ccc(NC3(C(=O)O)CCOCC3)cc2COC2CC2)c1F [Compound 288]

Row | IC50 [1] [µM] | IC50 [2] [µM] | SMILES
21 | 0.051 | < 0.1 | O=C(O)C1(Nc2ccc(-c3cccc(OC4CC4)c3F)c(COC3CC3)c2)CCOCC1 [Compound 289]
22 | 0.0158 | < 0.1 | COc1cc(OC2CC2)c(F)c(-c2ccc(NC3(C(=O)O)CCOCC3)cc2COC2CC2)c1 [Compound 290]
23 | 0.173 | < 0.1 | O=C(O)C1(Nc2ccc(-c3cccc(OC4CCC4)c3F)c(COC3CC3)c2)CCOCC1 [Compound 291]
24 | 0.117 | 0.1 to 1 | COc1cc(OC)c(F)c(-c2ccc(NC3(C(=O)O)CCOCC3)cc2COC2CC2)c1 [Compound 292]
25 | 0.00572 | < 0.1 | COc1cc(-c2ccc(NC3(C(=O)O)CCOCC3)cc2COC2CC2)c(Cl)c(OC)c1C [Compound 293]
26 | 0.0024 | < 0.1 | CCOc1cccc(-c2ccc(NC3(C(=O)O)CCOCC3)cc2CCC2CC2)c1C(F)F [Compound 296]
27 | 0.137 | 0.1 to 1 | CCOc1cc(OC)c(F)c(-c2ccc(NC3(C(=O)O)CCOCC3)cc2COC2CCCC2)c1 [Compound 297]
28 | 0.0384 | < 0.1 | COc1cc(-c2ccc(NC3(C(=O)O)CCOCC3)cc2COC2CCCC2)c(F)c(OC)c1C(C)O (stereo not drawn) [Compound 299]
29 | 0.0353 | < 0.1 | COc1cc(-c2ccc(NC3(C(=O)O)CCOCC3)cc2COC2CCCC2)c(F)c(OC)c1C(C)O (stereo not drawn) [Compound 300]
30 | 0.0125 | < 0.1 | O=C(O)C1(Nc2ccc(-c3cccc(OC4CC4)c3C(F)F)c(COC3CCCC3)c2)CC1 [Compound 301]
31 | 0.0852 | 0.1 to 1 | COc1cc(OC)c(C(F)F)c(-c2ccc(NC3(C(=O)O)CCOCC3)cc2COC2CC2)c1 [Compound 302]
32 | 0.0123 | < 0.1 | COc1cc(OC)c(Cl)c(-c2ccc(NC3(C(=O)O)CCOCC3)cc2COC2CC2)c1 [Compound 303]
33 | 0.00564 | > 1 | O=C(O)C1(Nc2ccc(-c3cccc(OC4CC4)c3)c(COC3CC3)c2)CCOCC1 [Compound 304]
34 | 0.711 | > 1 | O=C(O)C1(Nc2ccc(-c3cccc(CCO)c3F)c(COC3CC3)c2)CCOCC1 [Compound 305]
35 | 0.165 | 0.1 to 1 | CCOc1cccc(-c2ccc(NC3(C(=O)O)CCOCC3)cc2COC2CC2)c1F [Compound 306]
36 | 0.0584 | < 0.1 | CCCOc1cccc(-c2ccc(NC3(C(=O)O)CCOCC3)cc2COC2CC2)c1F [Compound 307]
37 | 0.0236 | < 0.1 | COc1cc(-c2c(C)cc(NC3(C(=O)O)CCOCC3)cc2CCC2CCOC2)cc(OC)c1C (stereo not drawn) [Compound 308]
38 | 0.0377 | < 0.1 | COc1cc(-c2c(C)cc(NC3(C(=O)O)CCOCC3)cc2CCC2CCOC2)cc(OC)c1C (stereo not drawn) [Compound 309]
39 | 0.00693 | < 0.1 | COc1cc(-c2ccc(NC3(C(=O)O)CCOCC3)cc2COC2CC2)c(C(F)F)c(OC)c1C [Compound 310]
40 | 0.148 | 0.1 to 1 | COCc1cccc(-c2ccc(NC3(C(=O)O)CCOCC3)cc2COC2CC2)c1C(F)F [Compound 311]

Row | IC50 [1] [µM] | IC50 [2] [µM] | SMILES
41 | 0.00544 | < 0.1 | CCOc1c(C)c(OC)cc(-c2ccc(NC3(C(=O)O)CCOCC3)cc2COC2CC2)c1F [Compound 312]
42 | 0.00593 | < 0.1 | CCOc1c(C)ccc(-c2ccc(NC3(C(=O)O)CCOCC3)cc2COC2CC2)c1C [Compound 313]
43 | 0.037 | < 0.1 | COc1cc(-c2ccc(NC3(C(=O)O)CCOCC3)cc2COC2CC2)c(C(F)F)c(OC)n1 [Compound 314]
44 | 0.024 | < 0.1 | CCOc1cc(OC)cc(-c2ccc(NC3(C(=O)O)CCOCC3)cc2COC2CCCC2)c1 [Compound 315]
45 | 1.08 | > 1 | CCOc1cc(OC)cc(-c2ccc(NC3(C(=O)O)CCOCC3)cc2COC2CC2)c1 [Compound 316]
46 | 0.014 | < 0.1 | CCOc1cccc(-c2ccc(NC3(C(=O)O)CC3)cc2COC2CCCC2)c1C(F)F [Compound 317]
47 | 0.00947 | < 0.1 | COc1cc(-c2ccc(NC3(C(=O)O)CCOCC3)cc2COC2CC2)c(C)c(OC)c1C [Compound 318]
48 | 0.0767 | < 0.1 | COc1cc(-c2ccc(NC3(C(=O)O)CCOCC3)cc2COC2CCCC2)c(F)cc1C [Compound 319]
49 | 0.0121 | < 0.1 | COc1cc(OC)c(C(F)F)c(-c2ccc(NC3(C(=O)O)CCOCC3)cc2COC2CCCC2)c1 [Compound 320]
50 | 0.0059 | < 0.1 | O=C(O)C1(Nc2ccc(-c3cccc(OC4CC4)c3C(F)F)c(COC3CC3)c2)CCOCC1 [Compound 322]
51 | 0.833 | 0.1 to 1 | CCOc1ccnc(-c2ccc(NC3(C(=O)O)CCOCC3)cc2COC2CC2)c1C(F)F [Compound 323]
52 | > 10 | > 1 | CCOc1cc(OC)cc(-c2ccc(NC3(C(=O)O)CCOCC3)cc2COC2CC2)n1 [Compound 324]
53 | 0.0596 | < 0.1 | O=C(O)C1(Nc2ccc(-c3cccc(OC4CC4)c3C(F)F)c(COC3CC3)c2)CC1 [Compound 325]
54 | 0.124 | 0.1 to 1 | CCCc1cccc(-c2ccc(NC3(C(=O)O)CCOCC3)cc2COC2CC2)c1F [Compound 326]
55 | 0.412 | 0.1 to 1 | CCc1cccc(-c2ccc(NC3(C(=O)O)CCOCC3)cc2COC2CC2)c1F [Compound 327]
56 | > 10 | > 1 | Cc1cccc(-c2ccc(NC3(C(=O)O)CCOCC3)cc2COC2CC2)c1F [Compound 328]
57 | 0.0619 | < 0.1 | CCOc1cc(-c2ccc(NC3(C(=O)O)CCOCC3)cc2COC2CC2)cc(OC)c1C [Compound 329]
58 | 0.00953 | < 0.1 | CCOc1cc(-c2ccc(NC3(C(=O)O)CCOCC3)cc2COC2CCCC2)cc(OC)c1C [Compound 330]
59 | 0.00937 | < 0.1 | COc1cc(OC2CC2)cc(-c2ccc(NC3(C(=O)O)CCOCC3)cc2COC2CCCC2)c1 [Compound 331]
60 | 0.139 | < 0.1 | COc1cc(OC2CC2)cc(-c2ccc(NC3(C(=O)O)CCOCC3)cc2COC2CC2)c1 [Compound 332]
